Measurements reported in PMC6974726, “Acetylation changes tau interactome to degrade tau in Alzheimer’s disease animal and organoid models” (Aging Cell, 2019).

Tests used:
[1] = test system: HDAC6; parameters: method as in Fan, Huang, Liou, & Yang, 2018; conditions: ref Fan, Huang, Liou, & Yang, 2018; cited from earlier work
[2] = test system: HDAC 1–11; test: HDAC enzymatic assay panel (IC50 heat maps); type: biochemical; conditions: HDAC 1–11, recombinant human enzymes
Description: Data are expressed as mean ± SEM.
The percentages of enzyme activity (relative to DMSO controls) and IC50 values were calculated using the GraphPad Prism 4 program based on a sigmoidal dose-response equation.

| SMILES | acetylation of Hsp90 [1] | ubiquitination of phosphorylated tau [1] | selectivity among HDAC isoforms (heat maps of IC50 values) [2] |
| --- | --- | --- | --- |
| O=C(NO)c1ccc(CNc2cccc3cccnc23)cc1 [MPT0G211] | increased | increased |  |
| Cc1[nH]c2ccccc2c1CCNCc1ccc(/C=C/C(=O)NO)cc1 [panobinostat] |  |  | no selectivity among HDAC isoforms |
